# Experimental data reported in patent US9510598B2, “Nitrogen-containing heterocyclic compounds for plant disease control” (BAYER CROPSCIENCE AG, priority 2012, dated 2016).
# Where “and” joins values, the source holds several entries; their conditions need not be identical. Identical values can stand only once. Like-named read-outs stand apart in the source and are kept apart here.
# What was measured:
# [1] = method [a]: pH 2.7, 0.1% formic acid in water / acetonitrile gradient
# [2] = assay type: physicochemical; conditions: for chromatographic logP: pH 2.7
# Botrytis cinerea = experiment: In vivo preventive test on Botrytis cinerea (grey mould); conditions: 500 ppm; gherkin plants sprayed 24 hours before contamination; grading 4-5 days after contamination vs control plants
# How it was run: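 Gherkin plants ("Vert petit de Paris") sprayed with compound at Z11 cotyledon stage, then inoculated 24 h later with B. cinerea spores (50 000/ml) in PDB/fructose/NH4NO3/KH2PO4 nutrient solution. Incubated at 17 °C, 80% RH; % efficacy versus solvent-treated controls graded 4–5 days after contamination.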
# Septoria tritici = experiment: In vivo preventive test on Septoria tritici (leaf spot on wheat); conditions: 500 ppm; wheat plants sprayed 24 hours before contamination; grading 21 to 28 days after contamination vs control plants
# How it was run: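 Scipion wheat at 1-leaf stage sprayed with compound, controls receiving acetone/tween/DMSO/water vehicle; 24 h later leaves inoculated with Septoria tritici spores (500 000 spores per ml). Efficacy (%) graded versus control plants 21 to 28 days after contamination.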
# Sphaerotheca fuliginea = experiment: In vivo preventive test on Sphaerotheca fuliginea (powdery mildew on cucurbits); conditions: 500 ppm; gherkin plants sprayed 24 hours before contamination; grading 12 days after contamination vs control plants
# How it was run: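 Preventive spray of gherkin plants at Z11 cotyledon stage, grown at 24° C; inoculation 24 hours later with Sphaerotheca fuliginea spores (100 000 spores per ml). Efficacy graded 12 days post-inoculation as % versus solvent-treated control plants.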
# [3] = HPLC on reversed phase columns, method [a]: pH 2.7, 0.1% formic acid in water / acetonitrile, linear gradient 10% to 95% acetonitrile
# [4] = method [a]: HPLC/LC-MS on reversed phase at pH 2.7, 0.1% formic acid in water / acetonitrile, linear gradient 10% to 95% acetonitrile
# [5] = HPLC on reversed phase columns, method [a]: pH 2.7, 0.1% formic acid in water and acetonitrile, linear gradient 10% to 95% acetonitrile
# [6] = method [a]: HPLC/LC-MS on reversed phase at pH 2.7, 0.1% formic acid in water / acetonitrile, gradient 10% to 95% acetonitrile
"Log P ([1]; Table 2, formula (II))",SMILES,% of efficacy (protection) (Botrytis cinerea) [%],% of efficacy (protection) (Septoria tritici) [%],% of efficacy (protection) (Sphaerotheca fuliginea),also measured
,ON=C(Cl)c1ccc2ncc(I)cc2c1 [V-14],,,,"Log P ([1]; Table 3, formula (V)): 2.77[a]"
2.94[a],COC(=O)C1(C(C)=O)CC(c2ccc3ncc(Br)cc3c2)=NO1 (stereo not shown) [II-40],,,,
2.20[a],C#Cc1cnc2ccc(C3=NOC(OC)(C(=O)OCCCC(C)NC(C)CCCOC(=O)C4(OC)CC(c5ccc6ncc(C#C)cc6c5)=NO4)C3)cc2c1 (stereo not shown) [II-71],,,,
1.99[a],COC(=O)C1(CO)CC(c2ccc3ncc(Br)cc3c2)=NO1 (stereo not shown) [II-52],,,,
3.02[a],COC(=O)C1(C)CC(c2ccc3nc(C#N)c(Br)cc3c2)=NO1 (stereo not shown) [II-47],,,,
1.95[a],C#Cc1cnc2c(Cl)cc(C3=NOC(OC)(C(=O)O)C3)cc2c1 (stereo not shown) [II-90],,,,
3.72[a],COC(=O)C1(C(F)(F)F)CC(c2cc3cc(Br)cnc3c(F)c2F)=NO1 (racemic) [II-22],,,,
3.99[a],CCOC(=O)C1(OC)CC(c2cc(C)c3ncc(Br)cc3c2)=NO1 (stereo not shown) [II-91],,,,
2.94[a],COC(=O)C1(C)CC(c2cc3cc(Br)cnc3cc2F)=NO1 (stereo not shown) [II-34],,,,
,ON=C(Cl)c1cc2cc(Br)cnc2c(F)c1F [V-03],,,,"Log P ([1]; Table 3, formula (V)): 2.92[a]"
3.13[a],CCOC(=O)C1(CF)CC(c2ccc3ncc(Br)cc3c2)=NO1 (stereo not shown) [II-62],,,,
3.44[a],C=C(C)C1(C(=O)OC)CC(c2ccc3ncc(Br)cc3c2)=NO1 (stereo not shown) [II-72],,,,
,ON=Cc1ccc2ncc(Br)cc2c1 [V-09],,,,"Log P ([1]; Table 3, formula (V)): 1.88[a]"
,ON=C(Cl)c1ccc2ncc(Br)cc2c1 [V-10],,,,"Log P ([1]; Table 3, formula (V)): 2.52[a]"
3.29[a],COC(=O)C1(C)CC(c2ccc3ncc(Br)c(Cl)c3c2)=NO1 (stereo not shown) [II-95],,,,
2.58[a],COC(=O)C1(C(C)=NO)CC(c2ccc3ncc(Br)cc3c2)=NO1 (stereo not shown) [II-39],,,,
2.64[a],Cc1cc(C2=NOC(C)(C(=O)O)C2)cc2cc(Br)cnc12 (stereo not shown) [II-85],,,,
3.06[a],COC(=O)C1(C)CC(c2cc3cc(Br)cnc3c(F)c2F)=NO1 (stereo not shown) [II-27],,,,
3.53[a],CC(C)OC(=O)C1(C)CC(c2ccc3ncc(Br)cc3c2)=NO1 (stereo not shown) [II-59],,,,
4.31[a],COC(=O)C1(C)CC(c2ccc3ncc(C#C[Si](C)(C)C)cc3c2)=NO1 (stereo not shown) [II-26],,,,
3.74[a],COC(=O)C1(C)CC(c2ccc3nc(Cl)c(Br)cc3c2)=NO1 (stereo not shown) [II-44],,,,
1.85[a],O=C(O)C1(C(F)(F)F)CC(c2ccc3ncc(Br)cc3c2)=NO1 (racemic) [II-08],,,,

"Log P ([1]; Table 2, formula (II))",SMILES,% of efficacy (protection) (Botrytis cinerea) [%],% of efficacy (protection) (Septoria tritici) [%],% of efficacy (protection) (Sphaerotheca fuliginea),also measured
3.05[a],COC(=O)C1(SC)CC(c2ccc3ncc(Br)cc3c2)=NO1 (stereo not shown) [II-84],,,,
,CCn1cc(CNC(=O)C2(C)CC(c3cc4cc(Br)cnc4c(F)c3F)=NO2)c(C)n1 (stereo not shown) [compound 17],100,100,85%,"Log P ([2]; method [a]: HPLC/LC-MS on reversed phase at pH 2.7, 0.1% formic acid in water and acetonitrile, linear gradient 10% to 95% acetonitrile): 2.69^[a]"
,CNC(=O)C1(C)CC(c2ccc3ncc(Br)cc3c2)=NO1 (stereo not shown) [compound 532],100,100,89%,"log P [2, 3]: 2.07[a]"
,CC(C)NC(=O)C1(C)CC(c2ccc3ncc(Cl)cc3c2)=NO1 (stereo not shown) [Compound No. 55],99,100,94% and 98%,chromatographic logP [2]: 2.61
,CCC1(C(=O)NC(C)C)CC(c2ccc3ncc(Br)cc3c2)=NO1 (stereo not shown) [compound 66],100,100,98%,"log P [2, 4]: 3.13^[a]"
,C#Cc1cnc2c(Cl)cc(C3=NOC(C)(C(=O)NCc4cnc(C)cn4)C3)cc2c1 (stereo not shown) [compound 558],97,100,85%,"log P [2, 3]: 2.39[a]"
,CC1(C)OCC(CNC(=O)C2(C)CC(c3cc(Cl)c4ncc(Br)cc4c3)=NO2)O1 (stereo not shown) [compound 540],100,92,94%,"log P [2, 3]: 3.17[a]"
,C=CC1(C(=O)NCC2COC(C)(C)O2)CC(c2ccc3ncc(I)cc3c2)=NO1 (stereo not shown) [compound 729],97,100,100%,"log P [2, 5]: 3.11[a]"
,C#Cc1cnc2ccc(C3=NOC(OC)(C(=O)N(O)C(C)C)C3)cc2c1 (stereo not shown) [compound 475],100,83,88%,"log P [2, 6]: 2.08[a]"
,C#Cc1cnc2ccc(C3=NOC(OC)(C(=O)NC(C)CC(=O)OC)C3)cc2c1 (stereo not shown) [compound 512],98,97,97%,"log P [2, 3]: 2.28[a]"
,C#Cc1cnc2ccc(C3=NOC(C=C)(C(=O)NC(C)C)C3)cc2c1 (stereo not shown) [compound 727],98,100,98%,"log P [2, 5]: 2.73[a]"
,C#Cc1cnc2c(Cl)cc(C3=NOC(C)(C(=O)NCCCOCC)C3)cc2c1 (racemic) [compound 545],100,100,100%,"log P [2, 3]: 2.94[a]"
,COC1(C(=O)NC2CC2)CC(c2ccc3ncc(Br)cc3c2)=NO1 (stereo not shown) [compound 508],100,94,98%,"log P [2, 6]: 2.35[a]"
,C#Cc1cnc2ccc(C3=NOC(C)(C(=O)NCc4cncn4C)C3)cc2c1 (stereo not shown) [compound 155],100,100,89%,"log P [2, 4]: 1.91^[a]"
,C=CC1(C(=O)NC(C)C)CC(c2ccc3ncc(Br)cc3c2)=NO1 (stereo not shown) [compound 734],95,100,98%,"log P [2, 5]: 3.08[a]"
,C#Cc1cnc2c(Cl)cc(C3=NOC(C)(C(=O)NCC4COC(C)(C)O4)C3)cc2c1 (stereo not shown) [compound 559],95,100,85%,"log P [2, 3]: 2.84[a]"
,CCOCCCNC(=O)C1(OC)CC(c2ccc3ncc(I)cc3c2)=NO1 (racemic) [compound 448],98,98,100%,"log P [2, 6]: 2.80[a]"
,COC1(C(=O)NCC2COC(C)(C)O2)CC(c2cc(Cl)c3ncc(Br)cc3c2)=NO1 (stereo not shown) [compound 568],99,100,94%,"log P [2, 3]: 3.11[a]"
,"CC(C)NC(=O)C1(C)CC(c2ccc3ncc(I)cc3c2)=NO1 (stereo not shown) [Compound No. 38, 3-(3-iodoquinolin-6-yl)-N-isopropyl-5-methyl-4,5-dihydro-1,2-oxazole-5-carboxamide]",100,100,97%,chromatographic logP [2]: 2.88
,CCOCCCNC(=O)C1(CC)CC(c2ccc3ncc(Br)cc3c2)=NO1 (stereo not shown) [compound 68],98,97,98%,"log P [2, 4]: 3.11^[a]"
,C#Cc1cnc2ccc(C3=NOC(C)(C(=O)NCC4COC(C)(C)O4)C3)cc2c1 (stereo not shown) [compound 125],100,100,98%,"log P [2, 4]: 2.35^[a]"
